Assay [1] has as its target T1, HDM2 (Homo sapiens, UniProt Q00987). The assay can be described thus: TdF assay (thermal melting with Sypro Orange). The class given is binding. Particulars: 6 uM HDM2, 10 mM HEPES pH 7.4, 150 mM NaCl, 1 mM DTT, 10 and 20 uM compound.
Assay [2] concerns the target T1, HDM2. Nature of the assay: Fluorescent polarization assay (FAM-labeled p53 peptide ligand competition). The class given is binding. Conditions: 10 nM HDM2 protein, 1 nM FAM-labeled p53 peptide ligand, PBS buffer; for Ki: non-linear regression.

T1 sequence (Q00987 whole entry): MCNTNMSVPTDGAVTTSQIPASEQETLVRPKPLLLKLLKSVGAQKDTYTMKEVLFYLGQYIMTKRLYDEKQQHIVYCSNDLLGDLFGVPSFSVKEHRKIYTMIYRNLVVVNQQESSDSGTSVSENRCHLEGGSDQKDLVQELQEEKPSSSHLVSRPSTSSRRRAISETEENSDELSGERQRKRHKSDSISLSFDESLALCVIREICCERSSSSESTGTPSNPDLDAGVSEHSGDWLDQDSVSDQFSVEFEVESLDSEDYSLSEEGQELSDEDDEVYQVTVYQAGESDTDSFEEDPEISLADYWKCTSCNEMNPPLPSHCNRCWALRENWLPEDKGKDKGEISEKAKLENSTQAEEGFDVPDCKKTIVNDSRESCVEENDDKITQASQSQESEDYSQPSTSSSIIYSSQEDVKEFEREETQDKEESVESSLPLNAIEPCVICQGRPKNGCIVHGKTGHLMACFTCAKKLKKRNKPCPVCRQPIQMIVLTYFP

In the case of `O=C(c1cnccc1C(F)(F)F)N1CCCC(Oc2ccc(C(F)(F)F)cc2)(C(=O)N2CCN(c3ccccn3)CC2)C1` (stereo not drawn) [Compound 1], the Kd (as a rule, the free concentration of one partner at which half of the binding sites on the other are occupied at equilibrium, for simple one-to-one binding) at HDM2 [1] is less than 2 µM. Further, on HDM2 [2], the IC50 (in general, the concentration that gives 50% inhibition) was less than 5 µM and the Ki (commonly the equilibrium dissociation constant of an inhibitor or competing ligand from its target) was less than 2 µM.

Compound `COCCOc1ccccc1N1CCN(C(=O)[C@]2(Oc3ccc(C(F)(F)F)cc3)CCCN(C(=O)c3cnccc3C(F)(F)F)[C@@H]2C(O)C(C)O)CC1` (stereo partly drawn) [Compound 4] returned a Kd on HDM2 [1] of less than 2 µM. Moreover, at HDM2 [2], the half-inhibitory concentration (IC50) was less than 5 µM and the Ki is less than 2 µM.

These data come from patent US7888474B2, “HDM2 polypeptides” (Schering Corporation, priority 2007, dated 2011).
